Assay results taken from paper PMC5080441, “A direct-sensing galactose chemoreceptor recently evolved in invasive strains of Campylobacter jejuni” (Nature Communications, 2016).

Molecular target: Tlp11 (CcrG, Campylobacter ChemoReceptor for Galactose)
Assay: SPR (Biacore); STD-NMR
Format: binding, Campylobacter jejuni

In the case of OC[C@H]1OC(O)[C@H](O)[C@@H](O)[C@H]1O (stereo partly shown) [galactose], the Kd is reported as 17 µM.
